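Cultured in 96-well plates, cells were exposed to test compound for 48 hours across five concentrations. TGI is the concentration that stops growth completely.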
How the values were obtained:
Test in all cases: NCI tumour cell line growth inhibition, 48 h
HOP-92 NSCLC = test system: HOP-92 NSCLC
SK-OV-3 ovarian = test system: SK-OV-3 ovarian
HOP-62 NSCLC = test system: HOP-62 NSCLC
NCI-H23 lung = test system: NCI-H23 lung
SNB-78 CNS = test system: SNB-78 CNS
K-562 leukemia = test system: K-562 leukemia
RXF-631 renal = test system: RXF-631 renal
HCT-15 colon = test system: HCT-15 colon
ACHN renal = test system: ACHN renal
HCT-116 colon = test system: HCT-116 colon
HCC-2998 colon = test system: HCC-2998 colon
SNB-19 CNS = test system: SNB-19 CNS
SR leukemia = test system: SR leukemia
TK-10 renal = test system: TK-10 renal
OVCAR-8 ovarian = test system: OVCAR-8 ovarian
DMS 273 small cell lung = test system: DMS 273 small cell lung
SF-539 CNS = test system: SF-539 CNS
SK-MEL-5 melanoma = test system: SK-MEL-5 melanoma
M14 melanoma = test system: M14 melanoma
A498 renal = test system: A498 renal
U251 CNS = test system: U251 CNS
SF-268 CNS = test system: SF-268 CNS
RPMI-8226 leukemia = test system: RPMI-8226 leukemia
IGROV1 ovarian = test system: IGROV1 ovarian
SNB-75 CNS = test system: SNB-75 CNS
NCI-H460 lung = test system: NCI-H460 lung
RXF 393 renal = test system: RXF 393 renal
NCI-H522 lung = test system: NCI-H522 lung
DLD-1 colon = test system: DLD-1 colon
CCRF-CEM leukemia = test system: CCRF-CEM leukemia
XF 498 CNS = test system: XF 498 CNS
LXFL 529 NSCLC = test system: LXFL 529 NSCLC
HL-60(TB) leukemia = test system: HL-60(TB) leukemia
OVCAR-3 ovarian = test system: OVCAR-3 ovarian
KM20L2 colon = test system: KM20L2 colon
UACC-257 melanoma = test system: UACC-257 melanoma
SF-295 CNS = test system: SF-295 CNS

Q: Which TGI (HOP-92 NSCLC) does the source give for COc1ccc2cc1Oc1ccc(cc1)C[C@@H]1c3cc(c(OC)cc3CCN1C)Oc1c(OC)c(OC)cc3c1[C@@H](C2)N(C)CC3 here?
A: Its TGI is 26.9 µM.

Q: And the TGI (SK-OV-3 ovarian)?
A: Its TGI is 41.2 µM.

Q: What about the TGI (HOP-62 NSCLC) of the same compound?
A: The TGI was 35.8 µM.

Q: What about the TGI (NCI-H23 lung) of the same compound?
A: Its TGI is 33.7 µM.

Q: And the TGI (SNB-78 CNS)?
A: Its TGI is 31.6 µM.

Q: And the TGI (K-562 leukemia)?
A: Its TGI is 9.77 µM.

Q: What about the TGI (RXF-631 renal) of the same compound?
A: Its TGI is 30 µM.

Q: What about the TGI (HCT-15 colon) of the same compound?
A: Its TGI is 30 µM.

Q: What about the TGI (ACHN renal) of the same compound?
A: Its TGI is 34.8 µM.

Q: And the TGI (HCT-116 colon)?
A: Its TGI is 13 µM.

Q: What about the TGI (HCC-2998 colon) of the same compound?
A: The TGI was 30.7 µM.

Q: What about the TGI (SNB-19 CNS) of the same compound?
A: The TGI was 30.8 µM.

Q: And the TGI (SR leukemia)?
A: Its TGI is 43.3 µM.

Q: And the TGI (TK-10 renal)?
A: Its TGI is 33.5 µM.

Q: And the TGI (OVCAR-8 ovarian)?
A: Its TGI is 28.2 µM.

Q: And the TGI (DMS 273 small cell lung)?
A: Its TGI is 35.3 µM.

Q: And the TGI (SF-539 CNS)?
A: The TGI was 23 µM.

Q: And the TGI (SK-MEL-5 melanoma)?
A: Its TGI is 33.8 µM.

Q: And the TGI (M14 melanoma)?
A: The TGI was 4.01 µM.

Q: And the TGI (A498 renal)?
A: The TGI was 32.5 µM.

Q: What about the TGI (U251 CNS) of the same compound?
A: The TGI was 26 µM.

Q: What about the TGI (SF-268 CNS) of the same compound?
A: The TGI was 52.4 µM.

Q: What about the TGI (RPMI-8226 leukemia) of the same compound?
A: The TGI was 39.9 µM.

Q: And the TGI (IGROV1 ovarian)?
A: The TGI was 40.8 µM.

Q: What about the TGI (SNB-75 CNS) of the same compound?
A: Its TGI is 23.7 µM.

Q: What about the TGI (NCI-H460 lung) of the same compound?
A: The TGI was 27.3 µM.

Q: And the TGI (RXF 393 renal)?
A: The TGI was 8.77 µM.

Q: And the TGI (NCI-H522 lung)?
A: The TGI was 30 µM.

Q: What about the TGI (DLD-1 colon) of the same compound?
A: Its TGI is 71.6 µM.

Q: What about the TGI (CCRF-CEM leukemia) of the same compound?
A: The TGI was 35 µM.

Q: And the TGI (XF 498 CNS)?
A: Its TGI is 19.3 µM.

Q: And the TGI (LXFL 529 NSCLC)?
A: Its TGI is 32.7 µM.

Q: And the TGI (HL-60(TB) leukemia)?
A: Its TGI is 39.9 µM.

Q: And the TGI (OVCAR-3 ovarian)?
A: The TGI was 33.8 µM.

Q: And the TGI (KM20L2 colon)?
A: The TGI was 21.3 µM.

Q: What about the TGI (UACC-257 melanoma) of the same compound?
A: The TGI was 28.1 µM.

Q: And the TGI (SF-295 CNS)?
A: The TGI was 31.3 µM.

— PubChem BioAssay (NCI)
